From ChEMBL document CHEMBL1147764, “Leptostatin: a synthetic hybrid of the cytotoxic polyketides callystatin A and leptomycin B” (Bioorg Med Chem Lett, 2006)

The compounds below were run on HCT-116 (assay: Cytotoxicity against HCT116 human colon cancer cell line).
Format: functional, cell-based
CCC(=C/[C@H](C)C/C=C/C(C)=C/[C@@H](C)C(=O)[C@@H](C)[C@H](O)[C@@H](C)CC)/C=C/[C@H]1OC(=O)C=C[C@@H]1C was tested, and the IC50 was 2 nM. For CCC(=C/[C@H](C)C/C=C/C(C)=C/[C@@H](C)C(=O)[C@@H](C)[C@H](O)[C@@H](C)CC)/C=C/[C@@H]1OC(=O)C=C[C@@H]1C, the IC50 was 3 nM. Compound CCC(=C/[C@H](C)C/C=C/C(C)=C/[C@@H](C)C(=O)[C@@H](C)[C@H](O)[C@@H](C)CC)/C=C/[C@H]1CC=CC(=O)O1 [CALLYSTATIN A] has an IC50 of 0.03 nM. With CCC(=C/[C@H](C)C/C=C/C(C)=C/[C@@H](C)C(=O)[C@@H](C)[C@H](O)[C@@H](C)CC)/C=C/[C@H]1OC(=O)C=C[C@H]1C the IC50 was 0.2 nM. CCC(=C/[C@H](C)C/C=C/C(C)=C/[C@@H](C)C(=O)[C@@H](C)[C@H](O)[C@@H](C)CC)/C=C/[C@@H]1OC(=O)C=C[C@H]1C gave an IC50 of 30 nM.
